Common to all, as to format: cell-based, human
For assay [1], the system named is pERK in SW480 cells (KRAS G12D). Nature of the assay: Phospho-ERK inhibition (AlphaLISA), SW480. The conditions noted are these: for SW480 pERK % Ymin: value in parentheses. The procedure, abridged:
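p-ERK1/2 (Thr202/Tyr204) in lysates measured by AlphaLISA after 1 h compound exposure of overnight-plated cells (RPMI-1640, 5% FBS, 0.5% DMSO, ten concentrations, usually from 10 μM). Background from a trametinib control subtracted, inhibition normalised to vehicle, and IC50 fitted with a variable-slope four-parameter model.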

Assay [2] has as its system pERK in Calu-6 cells (KRAS Q61K). The assay is described as follows: Phospho-ERK inhibition (AlphaLISA), Calu-6. The conditions noted are these: for Calu6 pERK % Ymin: Calu6, value in parentheses. On the procedure:
(§1) All cancer cell lines (A375, A101D, A2058, RKO, HT29 SK-MEL 30, IPC298, HepG2, HCT-116, Lovo, SWV620, SW480, NCI-H358, NCI-H2122, Calu-6, NCIH2087, NCIH1755, NCIH1666 and Mewo) were obtained from ATCC and cultured in RPMI-1640 medium (Gibco) supplemented with 5% heat inactivated fetal bovine serum (FBS, Wisent) at 37° C. under 5% CO2. Cells were maintained in T175 flasks (Greiner). They were passaged by removing the culture medium, washing once in 10 mL of room temperature Phosphate Buffered Saline (PBS; Wisent) and incubating at 37° C. with 2 mL of 0.05% Trypsin (Thermo-Fisher). Trypsin was then inactivated by adding complete growth medium and the cells were then replated in a T175 culture dish at the appropriate dilution. All cell lines were routinely tested for mycoplasma contamination. Tissue type and mutational status of each cell line can be found in Table B.
AlphaLISA® SureFire® Ultra™ p-ERK 1/2 (Thr202/Tyr204) analysis was conducted on cells plated in 100 μL of complete RPMI-1640 growth medium in 96-well flat-bottomed transparent dishes (Costar) at a density indicated in Table C. Cells were maintained overnight at 37° C. under 5% CO2 before treatment with compounds' dilution series for one hour. The cell density in cells/cm^2 corresponds to cell number divided by the area of one well of a 96-well plate ([…]).
In a dilution series 100 μL/well of test substance dilution prepared in complete RPMI-1640 growth media was added to the cells. The dilution series is selected so that ten concentrations cover a range from 10 μM to 0.33 nM. If necessary the initial concentration of 10 μM is increased to 100 μM or lowered to 1 μM (as in the case of A375 and H1666 cells, which are generally more sensitive to the compounds) and further dilution is carried out accordingly. The final concentration of DMSO in the assay is set at 0.5%.
After treatment, media was removed and cells were lysed in 50 μL of 1× AlphaScreen Ultra Lysis Buffer (Perkin Elmer). The AlphaLISA® SureFire® Ultra™ p-ERK 1/2 (Thr202/Tyr2O4) (PerkinElmer) reactions were performed with 5 μL of cell lysate according to the manufacturer's specifications in 384-well proxyplates (Perkin Elmer) followed by overnight incubation of the reactions at room temperature in a humidified chamber. After completion of the reactions, the signals were recorded on an EnVision plate reader (Perkin Elmer) using built in AlphaLISA® settings.
The effect of each compound dilution on the pERK signal was expressed in % inhibition and calculated as follows. An internal 100% inhibition control ([…] trametinib, cat #HY-10999; MedChem Express; CAS #871700-17-3) was included in each plate and used as a measure of pERK background. First, the value obtained for trametinib was subtracted from each data point. The average of DMSO (vehicle) controls (set as 0% inhibition) was established and used to calculate % inhibition: % inhibition=100*(1-((pERK signalcompound)/(pERK signalDMSO)))
The ability of each compound to inhibit pERK signal was expressed as an IC50 value obtained by plotting the inhibition values for each data point of a dilution series and fitting the obtained curves using a log(agonist) versus response-variable slope (four parameters) function using GraphPadPrism (V7.0) or Dotmatics Screening Ultra platform.
When present, paradoxical pERK induction is inferred from the negative % inhibition values observed in the pERK IC50 curves of a compound.

For another assay, the system named is HepG2 cells (NRAS-Q61L). Nature of the assay: Proliferation inhibition (CellTiter-Glo), HepG2. As to conditions: HepG2, 3 days, read-out: HepG2 Prolif. EC50. The protocol:
as §1
(§2) CellTiter-Glo® viability analysis was conducted on cells plated in 100 μL of complete RPMI-1640 growth medium in 96-well flat-bottomed white opaque plates (Greiner or Croning) at a density indicated in Table E (for each CCL, number of cells plated per well of a 96-well plate to perform the CellTiter-Glo® cell viability assay). The cell density in cells/cm^2 would correspond to cell number divided by the area of one well of a 96-well plate (0.32 cm^2). […]
(§3) After 3 days of incubation, the growth media were removed by aspiration and 60 μL of diluted CellTiter-Glo® reagent (10 μL CellTiter-Glo® reagent+50 μL of PBS) was added to each well. […] Luminescence signals were then acquired on a Synergy Neo2 plate reader (Biotek).
(§4) The effect of each compound dilution on the proliferation of cancer cell lines was expressed in % inhibition and calculated as follows. […]
(§5) The ability of each compound to inhibit proliferation was expressed as a EC50 value obtained by plotting the effect values for each data point of a dilution series and fitting the obtained curves using a log(agonist) versus response-variable slope (four parameters) function using GraphPadPrism (V7.0) or Dotmatics Screening Ultra platform.
In general terms: ATP-based viability assays read luminescence as a measure of living cells.

The test system of a further assay is SW480 cells (KRAS G12D). Nature of the assay: Proliferation inhibition (CellTiter-Glo), SW480. As to conditions: SW480, 3 days, read-out: SW480 Prolif. EC50. The protocol: as §1, §2, §3, §4, §5

The term IC50 denotes the concentration that inhibits the measured activity by half. Broadly, the EC50 is the concentration at which the effect is half-maximal.

Where two headings read alike, the source gives them in different places.

With `CC1(O)CCN(c2cccc3c2ncn3-c2ccc3ncnc(Nc4c(F)ccc(NS(=O)(=O)c5cccc(Cl)c5Cl)c4F)c3n2)CC1` [Example 524], the IC50 in assay [1] (SW480, Table D) was 30 to 300 nM; in assay [1] (SW480 cells, class symbol), less than 500 nM; in assay [2] (Calu6), 30 to 300 nM. Also, in assay [1] (SW480, Table D), the “SW480 pERK % Ymin” value is listed as 0%. The “Calu6 pERK % Ymin” value in assay [2] is reported as −13%. The EC50 is less than 30 nM with HepG2 cells (NRAS-Q61L) and 300 to 3000 nM in the assay on SW480 cells (KRAS G12D).

As to `Cc1ccc2c(Nc3cccc(Cl)c3F)nccc2c1NC(=O)c1csc2c(N)ncnc12` [Belvarafenib, reference compound], the IC50 in assay [1] (Homo sapiens, SW480, Table D) was in the range of 30 to 300 nM; in assay [2] (Homo sapiens, Calu-6, read-out: Calu6 pERK IC50), 30 to 300 nM. Further, the “SW480 pERK % Ymin” value in assay [1] (SW480, Table D) was −100%. In addition, the “Calu6 pERK % Ymin” value in assay [2] is −39%. Further, the EC50 in the assay with HepG2 cells (NRAS-Q61L) (Homo sapiens, 72 h) is less than 30 nM; in the assay with SW480 cells (KRAS G12D) (Homo sapiens, 72 h) it was 300 to 3000 nM.

For `Nc1cccc2c1ncn2-c1ccc2ncnc(Nc3c(F)ccc(NS(=O)(=O)c4cccc(Cl)c4Cl)c3F)c2n1` [Example 99], the IC50 was 30 to 300 nM in assay [1] (SW480, Table D); less than 500 nM in assay [1] (SW480 cells, class symbol before the bracket); 30 to 300 nM in assay [2] (Calu6). Further, the “SW480 pERK % Ymin” value in assay [1] (SW480, Table D) is recorded as −7%. Moreover, in assay [1] (SW480 cells, Ymin in brackets), the “SW480 pERK Ymin %” value is listed as −0.3%. Moreover, in assay [2], the “Calu6 pERK % Ymin” value was −12%. The EC50 is less than 30 nM in the assay with HepG2 cells (NRAS-Q61L) and 300 to 3000 nM with SW480 cells (KRAS G12D).

The values are drawn from patent US12139488B2, “Pyrido[3,2-d]pyrimidine compounds uses thereof for treating a proliferative disease” (Universite de Montreal, priority 2021, dated 2024).
